Common to all, as to assay: inhibition of tumour cell growth, NCI panel, 48 h
In assay [1] the test system is A549 NSCLC.
Assay [2] relates to EKVX NSCLC.
The subject of assay [3] is HOP-92 NSCLC.
For assay [4], the system named is M14 melanoma.
Assay [5] relates to NCI-H23 lung.
For assay [6], the system named is OVCAR-4 ovarian.
In assay [7] the test system is OVCAR-8 ovarian.
For assay [8], the system named is SK-MEL-5 melanoma.
Assay [9] relates to SNB-19 CNS.
Assay [10] has as its system UACC-62 melanoma.

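Values below derive from 48-hour exposures of cells grown in 96-well plates, with endpoints linearly interpolated between the two concentrations bracketing the appropriate inhibition level. GI50 = concentration required for 50% inhibition of growth. The concentration for full growth arrest is given as TGI.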

From PubChem BioAssay (NCI) come the findings set out here.

For `COc1ccc(/C=N/NC(=O)Cn2c(-c3ccc(S(C)(=O)=O)cc3)nc3cc(Cl)ccc32)cc1`, the GI50 is 1.97 µM in assay [1]; 2.51 µM in [2]; 1.52 µM in [3]; 0.505 µM in assay [4]; 2.39 µM in assay [5]; 2.53 µM in assay [6]. In addition, the GI50 is 1.79 µM in assay [7], 0.964 µM in assay [8], 1.53 µM in assay [9] and 0.709 µM in assay [10]. Also, the TGI in assay [1], in [2], in [3], in assay [4], in assay [5] and in assay [6] was over 50 µM each time. Further, the TGI in assay [7] is over 50 µM; in [8], 8.55 µM; in assay [9], over 50 µM; in assay [10], over 50 µM.
In the case of `O=c1[nH]cnc2c(C3NC(CO)C(O)C3O)c[nH]c12` (centres undefined), the GI50 in [1], in assay [2], in [3], in assay [4], in [5] and in [6] was over 100 µM in each case. Also, the GI50 in assay [7], in [8], in assay [9] and in assay [10] was over 100 µM each time. The TGI in [1], in assay [2], in assay [3], in [4], in [5] and in assay [6] was over 100 µM each time. Besides, the TGI in assay [7], in assay [8], in [9] and in assay [10] was over 100 µM in each case.
For `CCn1c2ccccc2c2cc(/C=C(/C#N)C(N)=O)ccc21`, the GI50 was 20.3 µM in assay [1]; 3.57 µM in [2]; 16.9 µM in assay [3]; 13.4 µM in [4]; 16.3 µM in [5]; 6.54 µM in assay [6]. In addition, the GI50 is 42.6 µM in assay [7], 8.5 µM in [8], 10.2 µM in [9] and 1.91 µM in assay [10]. The TGI in [1] is over 100 µM; in assay [2], over 48.7 µM; in [3] it was over 91.4 µM; in [4], over 83.6 µM; in [5], over 100 µM; in assay [6], over 100 µM. The TGI is over 100 µM in [7], 54.2 µM in [8], over 87.8 µM in assay [9] and 7.65 µM in [10].
For the compound `O=[N+]([O-])c1cc(S(=O)(=O)Oc2ccccc2)ccc1Cl`, the GI50 in assay [1] was 3.43 µM; in [2], 1.99 µM; in [3], 1.75 µM; in assay [4], 2.06 µM; in assay [5], 16.5 µM; in [6], 1.75 µM. Also, the GI50 in [7] was 5.15 µM; in [8], 4.06 µM; in [9] it was 3.11 µM; in assay [10], 3.55 µM. Moreover, the TGI in assay [1] was 14.5 µM; in assay [2], 4.07 µM; in assay [3] it was 3.39 µM; in assay [4] it was 4.28 µM; in assay [5], 37.9 µM; in assay [6] it was 3.2 µM. In addition, the TGI in assay [7] worked out at 19.7 µM; in [8], 15 µM; in assay [9], 11.1 µM; in assay [10] it was 13.5 µM.
`COc1ccc(C=O)c(NC(=O)C(C)C)c1`: the TGI in [1] is over 100 µM; in assay [2], over 100 µM; in assay [3] it was 53.5 µM; in assay [4], over 100 µM; in assay [5] it was over 100 µM; in [6], over 100 µM. Also, the TGI is over 100 µM in assay [7], over 10 µM in [8], over 100 µM in assay [9] and over 100 µM in assay [10].
For the compound `COc1ccc2c(c1)OC1=C(C(=O)OC1)C2c1cc(OC)c2c(c1)OCO2` (centres undefined), the GI50 in assay [1] is 0.0459 µM; in assay [3] it was 28.6 µM; in [4], 0.0223 µM; in [5] it was 0.0441 µM; in [6] it was 0.0597 µM; in assay [7] it was 0.0516 µM. For the same compound, the GI50 in assay [8] was 0.0383 µM; in assay [9] it was 0.0531 µM; in assay [10] it was 0.0478 µM. Besides, the TGI was over 100 µM in assay [1]; over 100 µM in assay [2]; over 100 µM in assay [3]; 0.0552 µM in assay [4]; over 100 µM in assay [5]; over 100 µM in assay [6]. The TGI in assay [7] is over 100 µM; in [8], 0.325 µM; in assay [9], over 100 µM; in [10], over 100 µM.
As to `C[CH2][Pb]([CH2]C)([CH2]C)[O]C(=O)c1ccc2ccccc2n1`, the GI50 in assay [1], in [2], in [3], in assay [4], in [5] and in [6] was over 10 µM in each case. Also, the GI50 in assay [7], in assay [8], in assay [9] and in [10] was over 10 µM each time. Moreover, the TGI in assay [1], in assay [2], in assay [3], in [4], in assay [5] and in assay [6] was over 10 µM throughout. Further, the TGI in [7], in [8], in assay [9] and in [10] was over 10 µM throughout.
